Patent publication US20240165112A1, “THERAPY FOR THE TREATMENT OF CANCER” (Bristol-Myers Squibb Company, priority 2022, published 2024)

Key:
[1] = system: CXF2061 organoid, colon cancer; assay: 3D clonogenic assay in patient derived organoids; type: cell-based, human
Experimental: (§1) Five tumor cell lines (4T1.2, A549, EMT6, NCI-H460, and HT29) were treated with a range of paclitaxel or 5-FU concentrations in the presence of dimethlylsulfoxide (DMSO), 5 μM Compound 1, or 20 μM Compound 1. Cells were imaged 4 days after treatment and percent confluence was assessed by image quantification. EC50 values for cell confluence were used to assess chemotherapy potency. Eleven patient-derived tumor organoids (MAXFTN449, MAXFTN2990, PAXF1657, PAXF2131, CXF1256, CXF2129, CXF2061, LXFE2478, LXFE690, LXFA677, LXFA644) were seeded in a 3D matrix and treated with a range of paclitaxel, 5-FU, SN38, Gemcitabine, oxaliplatin, and carboplatin concentrations in the presence of DMSO, 5 μM Compound 1, or 20 μM Compound 1. After 8 to 13 days in culture, colonies were stained, imaged, and counted. A dose response curve was generated for chemotherapy alone or chemotherapy in combination with 5 or 20 μM Compound 1. Combination activity was defined as a percentage of the area under the chemotherapy dose response curve (cAUC) for Compound 1 combination groups compared to the cAUC of chemotherapy alone.
(§2) For combination experiments, working stock solutions of all compounds were prepared in DMSO at concentrations of 660-fold the highest test concentration used and stored at −20° C. Platin compounds were prepared freshly on each treatment day. On each day of an experiment, an aliquot of the working stock solutions was used and stored at room temperature prior to and during treatment. First, 1:2 dilutions of 660-fold concentrated working stocks were prepared in DMSO (in case of monotherapy controls), or equal amounts of the compound working stocks were mixed (in case of drug combinations). Then, different dilutions of these 330-fold concentrated solutions were prepared in DMSO to give an 8×2 matrix combination layout with conditions. The DMSO dilutions were further diluted […] into cell culture medium (IMDM, supplemented with 20% (v/v) fetal bovine serum, and 50 μg/mL gentamicin) in an intermediate dilution plate. Finally, 10 μL taken from the intermediate dilution plate were transferred to 140 μL of cells and medium per well of the final assay plate. Thus, the DMSO dilutions used for the mono- and the combination-treatment were diluted 1:660, and the DMSO concentration in the assay was […].
(§3) Tumors were passaged as subcutaneous xenografts in NMRI nu/nu mice. At a tumor volume of 400 to 1000 mm^3, tumor-bearing mice were euthanized, and tumors were collected under sterile conditions without delay. Tumors were mechanically disaggregated and subsequently incubated with an enzyme cocktail consisting of collagenase type IV (41 U/mL), DNase I (125 U/mL), hyaluronidase type III (100 U/mL), and dispase II (1 U/mL) in RPMI 1640 medium at 37° C. for 60 to 120 minutes. Cells were passed through sieves of 100 μm and 40 μm mesh size, and washed with RPMI 1640 medium. The percentage of viable cells was determined in a Neubauer-hemocytometer using trypan blue exclusion. Aliquots of the cells were frozen down and stored in liquid nitrogen vapor phase. On each day of an experiment, a frozen aliquot of tumor cells was thawed and used for preparation of assay plates.
(§4) The clonogenic assay was carried out in a 96 well plate format using ultra low attachment plates. For each test, plates were prepared as follows: each test well contained a layer of semi-solid medium with tumor cells (50 μL), and a second layer of medium supernatant with or without test compound (100 μL). The cell layer consisted of […] to 12.5×10^3 tumor cells per well, which were seeded in 50 μL/well cell culture medium (IMDM, supplemented with 20% (v/v) fetal bovine serum, 50 μg/mL gentamicin, and 0.4% (w/v) agar). After 24 hours, the soft-agar layer was covered with 90 μL of the same culture medium without agar, and 10 μL of control medium or test compound after serial dilution in DMSO for the duration of the experiment (continuous exposure, 100 μL drug overlay).

[2] = system: CXF2129 organoid, colon cancer; assay: 3D clonogenic assay in patient derived organoids; type: cell-based, human
Experimental: as §1, §2, §3, §4

[3] = system: MAXFTN449 organoid, breast cancer (triple negative); assay: 3D clonogenic assay in patient derived organoids; type: cell-based, human
Experimental: as §1, §2, §3, §4

[4] = system: PAXF1657 organoid, pancreatic cancer; assay: 3D clonogenic assay in patient derived organoids; type: cell-based, human
Experimental: as §1, §2, §3, §4

[5] = system: PAXF2131 organoid, Pancreatic cancer; assay: 3D clonogenic assay in patient derived organoids; type: cell-based, human
Experimental: as §1, §2, §3, §4

[6] = system: CXF1256 organoid, colon cancer; assay: 3D clonogenic assay in patient derived organoids; type: cell-based, human
Experimental: as §1, §2, §3, §4

[7] = system: MAXFTN2990 organoid, breast cancer (triple negative); assay: 3D clonogenic assay in patient derived organoids; type: cell-based, human
Experimental: as §1, §2, §3, §4

[8] = system: Five tumor cell lines (4T1.2, A549, EMT6, NCI-H460, and HT29)
Experimental: as §1

[9] = system: A549 cell line; assay: 2D cell line viability assay (cell confluence); type: cell-based; details: Homo sapiens, A549, 96 h, 4 days
Text: (§5) FIGS. 4A-4E illustrate the effects of Compound 1 on the Potency of Paclitaxel in a 2D Cell Line Viability Assay. […] Data points indicate mean and Standard Deviation of 2 biological replicates. Graphs are representative of at least 2 independent experiments. […] Abbreviations: DMSO, dimethylsulfoxide.

[10] = system: NCI-H460 cell line; assay: 2D cell line viability assay (cell confluence); type: cell-based; details: Homo sapiens, NCI-H460, 96 h, 4 days
Text: as §5

[11] = system: HT29 cell line; assay: 2D cell line viability assay (cell confluence); type: cell-based; details: Homo sapiens, HT-29, 96 h, 4 days
Text: as §5

[12] = system: EMT6 cell line; assay: 2D cell line viability assay (cell confluence); type: cell-based, murine; details: Mus musculus, EMT6, 96 h, 4 days
Text: as §5

[13] = system: 4T1.2 cell line; assay: 2D cell line viability assay (cell confluence); type: cell-based, murine; details: Mus musculus, 4T1.2, 96 h
Text: as §5

[14] = chemotherapy dose titration + 5 μM Compound 1 vs chemotherapy alone
[15] = chemotherapy dose titration + 20 μM Compound 1 vs chemotherapy alone
[16] = in the presence of 5 μM Compound 1
[17] = in the presence of 20 μM Compound 1

For O=c1[nH]cc(F)c(=O)[nH]1 [Compound 5-FU, 5-Fluorouracil], the “Combination activity 5 μM Compound 1 (cAUC % reduction)” value [1, 14] was 25%, the “Combination activity 20 μM Compound 1 (cAUC % reduction)” value [1, 15] was 18% and the “Combination activity 5 μM Compound 1 (cAUC % reduction)” value [2, 14] was 42%. For the same compound, the “Combination activity 20 μM Compound 1 (cAUC % reduction)” value [2, 15] was 31%, the “Combination activity 5 μM Compound 1 (cAUC % reduction)” value [3, 14] was 29% and the “Combination activity 20 μM Compound 1 (cAUC % reduction)” value [3, 15] was 14%. The “Combination activity 5 μM Compound 1 (cAUC % reduction)” value [4, 14] was 32%, the “Combination activity 20 μM Compound 1 (cAUC % reduction)” value [4, 15] was 32% and the “Combination activity 5 μM Compound 1 (cAUC % reduction)” value [5, 14] was 52%. The “Combination activity 20 μM Compound 1 (cAUC % reduction)” value [5, 15] was 67%, the “Combination activity 5 μM Compound 1 (cAUC % reduction)” value [6, 14] was 78% and the “Combination activity 20 μM Compound 1 (cAUC % reduction)” value [6, 15] was 79%. The “Combination activity 5 μM Compound 1 (cAUC % reduction)” value [7, 14] was −25%, the “Combination activity 20 μM Compound 1 (cAUC % reduction)” value [7, 15] was 8% and the “potency of 5-FU in the presence of Compound 1 relative to 5-FU potency in the absence of Compound 1” value [8] was ≤ 2 fold. For the same compound, the EC50 ([9]; in the absence of Compound 1) was 2400 nM, the EC50 [9, 16] was 2600 nM and the EC50 [9, 17] was 1500 nM. The EC50 ([10]; in the absence of Compound 1) was 2600 nM, the EC50 [10, 16] was 1600 nM and the EC50 [10, 17] was 1700 nM. It also gave an EC50 ([11]; in the absence of Compound 1) of 2500 nM, an EC50 [11, 16] of 2500 nM and an EC50 [11, 17] of 1600 nM. For the same compound, the EC50 ([12]; in the absence of Compound 1) was 2700 nM, the EC50 [12, 16] was 2500 nM and the EC50 [12, 17] was 2600 nM. It also gave an EC50 ([13]; 4 days after treatment, in the absence of Compound 1) of 570 nM, an EC50 ([13]; 4 days, in the presence of 5 μM Compound 1) of 500 nM and an EC50 ([13]; 4 days, in the presence of 20 μM Compound 1) of 490 nM.
